Experimental data as given in US20130011427A1 (priority 2009, published 2013).

What was measured:
Assay type in all cases: cell-based, mouse
[1] = tested on: HLA-DR4/huCD4 (DRB1*0401) Tg mice, CD8-depleted splenocytes
[2] = tested on: HLA-A2.1 (HLA-A*0201) Tg mice, CD4-depleted splenocytes
[3] = tested on: HLA-DR3 (DRB1*0301) Tg mice, CD8-depleted splenocytes
[4] = tested on: HLA-DR2 (DRB1*1501) Tg mice, CD8-depleted splenocytes

| Sequence | T cell activation of HLA transgenic mice (SFC/10^6) IFN-γ ELISpot, DR4 [1] [SFC/10^6] | T cell activation of HLA transgenic mice (SFC/10^6) IFN-γ ELISpot, DR3 [3] [SFC/10^6] | other results |
| --- | --- | --- | --- |
| AEVRSYCYLATVSDLSTK [E 54-71] | 205 ± 56 |  |  |
| AHWTEARIMLDNINM [NS3 487-501] |  | 431 ± 112 | T cell activation of HLA transgenic mice (SFC/10^6) IFN-γ ELISpot, A2 [2]: 308 ± 188 SFC/10^6 |
| ALLTPGLRCLNLDVYRIL [NS2a 160-177] |  | 59 ± 3 | T cell activation of HLA transgenic mice (SFC/10^6) IFN-γ ELISpot, A2 [2]: 63 ± 18 SFC/10^6 |
| ARIMLDNINMPNGLIAQF [NS3 492-509] |  | 216 ± 42 |  |
| CLNLDVYRILLLMVGI [NS2a 168-183] |  | 231 ± 16 | T cell activation of HLA transgenic mice (SFC/10^6) IFN-γ ELISpot, DR2 [4]: 556 ± 33 SFC/10^6 |
| CYGGHTNEDDSNFAHW [NS3 474-489] |  | 83 ± 23 | T cell activation of HLA transgenic mice (SFC/10^6) IFN-γ ELISpot, A2 [2]: 92 ± 18 SFC/10^6 |
| DRRWCFDGPRTNTIL [NS3 560-574] |  | 225 ± 10 |  |
| DTGCAIDISRQELRCGSGV [NS1 1-19] |  | 572 ± 20 |  |
| DTPSPKEYKKGDTTTGVY [NS3 6-23] | 43 ± 6 |  |  |
| EGRVEIDFDYCPGTTVTL [NS1 270-287] | 54 ± 6 |  |  |
| EKLQLKGTTYGVCSKAFK [E 293-310] | 47 ± 5 |  |  |
| EQQINHHWHKSGSSIGKA [E 390-407] |  | 50 ± 6 |  |
| EVITKLGERKILRPRWI [NS3 581-597] | 52 ± 11 |  |  |
| FAESNSGGDVVHLALMA [NS2a 65-81] | 60 ± 13 |  |  |
| FDGPRTNTILEDNNEVEV [NS3 565-582] |  | 59 ± 3 |  |
| FRSLFGGMSWITQGLLGA [E 450-467] |  | 104 ± 21 | T cell activation of HLA transgenic mice (SFC/10^6) IFN-γ ELISpot, DR2 [4]: 261 ± 13 SFC/10^6; T cell activation of HLA transgenic mice (SFC/10^6) IFN-γ ELISpot, A2 [2]: 205 ± 145 SFC/10^6 |
| GAGVMVEGVFHTLWHTTK [NS3 37-54] |  | 368 ± 66 | T cell activation of HLA transgenic mice (SFC/10^6) IFN-γ ELISpot, DR2 [4]: 149 ± 13 SFC/10^6 |
| GCWGQVTLTVTVTAATLL [NS4b 101-118] | 134 ± 8 |  |  |
| GQVVTYALNTFTNLAVQL [NS5 605-622] | 240 ± 76 |  | T cell activation of HLA transgenic mice (SFC/10^6) IFN-γ ELISpot, DR2 [4]: 556 ± 27 SFC/10^6 |
| GRTILKENIKYEVAIFVH [E 127-144] |  | 198 ± 21 | T cell activation of HLA transgenic mice (SFC/10^6) IFN-γ ELISpot, DR2 [4]: 120 ± 1 SFC/10^6 |
| GVFIHNDVEAWMDRYKYY [NS1 18-35] |  | 52 ± 8 |  |
| GWPATEVMTAVGLMFAIV [NS2b 1-18] | 104 ± 18 |  |  |
| GWYDWQQVPFCSNHFTEL [NS5 704-721] | 65 ± 27 |  |  |
| HFMGKTWEALDTMYVVA [NS4a 15-31] | 187 ± 20 |  | T cell activation of HLA transgenic mice (SFC/10^6) IFN-γ ELISpot, DR2 [4]: 278 ± 26 SFC/10^6 |
| HKSGSSIGKAFTTTLKGA [E 398-415] |  | 88 ± 1 | T cell activation of HLA transgenic mice (SFC/10^6) IFN-γ ELISpot, DR2 [4]: 168 ± 18 SFC/10^6 |
| IKYEVAIFVHGPTTVESH [E 135-152] |  | 86 ± 13 |  |
| IVVGRGEQQINHHWHK [E 384-399] |  | 87 ± 16 |  |

| Sequence | T cell activation of HLA transgenic mice (SFC/10^6) IFN-γ ELISpot, DR4 [1] [SFC/10^6] | T cell activation of HLA transgenic mice (SFC/10^6) IFN-γ ELISpot, DR3 [3] [SFC/10^6] | other results |
| --- | --- | --- | --- |
| KVLIELEPPFGDSYIVV [E 370-386] | 148 ± 10 |  |  |
| LAVGGVLLFLSVNVHA [E 486-501] |  | 244 ± 16 | T cell activation of HLA transgenic mice (SFC/10^6) IFN-γ ELISpot, DR2 [4]: 214 ± 27 SFC/10^6; T cell activation of HLA transgenic mice (SFC/10^6) IFN-γ ELISpot, A2 [2]: 323 ± 173 SFC/10^6 |
| LGALLLWMGINARDRSIA [E 465-482] |  | 330 ± 91 | T cell activation of HLA transgenic mice (SFC/10^6) IFN-γ ELISpot, DR2 [4]: 490 ± 64 SFC/10^6; T cell activation of HLA transgenic mice (SFC/10^6) IFN-γ ELISpot, A2 [2]: 310 ± 186 SFC/10^6 |
| LVKTESWILRNPGYALVA [prM 121-138] | 56 ± 6 |  | T cell activation of HLA transgenic mice (SFC/10^6) IFN-γ ELISpot, DR2 [4]: 130 ± 23 SFC/10^6 |
| LVQSYGWNIVTMKSGVDV [NS5 115-132] |  | 79 ± 23 |  |
| NEDDSNFAHWTEARIML [NS3 480-496] |  | 121 ± 1 |  |
| NMPNGLIAQFYQPEREKV [NS3 500-517] |  | 145 ± 49 | T cell activation of HLA transgenic mice (SFC/10^6) IFN-γ ELISpot, DR2 [4]: 51 ± 10 SFC/10^6 |
| NTFTNLAVQLVRMMEGEGV [NS5 613-631] | 119 ± 21 |  |  |
| NWVPTGRTTWSIHAGGEW [NS5 791-808] | 78 ± 17 |  |  |
| PATAWSLYAVTTAVLTPL [NS4b 38-55] |  | 67 ± 13 | T cell activation of HLA transgenic mice (SFC/10^6) IFN-γ ELISpot, DR2 [4]: 57 ± 11 SFC/10^6 |
| PFVDVGVSALLLAAGCW [NS4b 87-103] | 59 ± 14 |  |  |
| RGWGNGCGLFGKGSI [E 99-113] |  | 79 ± 7 |  |
| RLNDTWKLERAVLGEVK [NS1 205-221] | 61 ± 15 |  |  |
| RQELRCGSGVFIHNDVEA [NS1 10-27] | 63 ± 8 |  |  |
| SGCWYGMEIRPQRHDEK [NS1 327-343] | 78 ± 4 |  |  |
| SQIGLIEVLGKMPEHFM [NS4a 1-17] |  | 132 ± 17 |  |
| VAAEMAEALRGLPIRY [NS3 228-243] | 46 ± 9 |  |  |
| VFHTLWHTTKGAALM [NS3 45-59] |  | 63 ± 10 |  |
| VFTSVGKAVHQVFGGAFR [E 434-451] |  | 79 ± 19 | T cell activation of HLA transgenic mice (SFC/10^6) IFN-γ ELISpot, DR2 [4]: 116 ± 5 SFC/10^6 |
| VHQVFGGAFRSLFGGMSW [E 442-459] |  | 101 ± 15 | T cell activation of HLA transgenic mice (SFC/10^6) IFN-γ ELISpot, DR2 [4]: 117 ± 5 SFC/10^6; T cell activation of HLA transgenic mice (SFC/10^6) IFN-γ ELISpot, A2 [2]: 442 ± 313 SFC/10^6 |
| VTVNPFVSVATANAKVLI [E 356-373] | 217 ± 51 |  |  |
| VVNPSVKTVREAGILITA [NS4b 187-204] | 83 ± 13 |  |  |
| VWLAYKVAAAGVSYHDRR [NS3 545-562] |  | 110 ± 9 |  |
| WDFGSVGGVFTSVGKAVH [E 426-443] |  | 83 ± 13 |  |
| WHTTKGAALMSGEGRL [NS3 50-65] |  | 191 ± 37 |  |
| YFHRRDLRLMANAICSAV [NS5 771-788] | 135 ± 47 |  |  |
